Test results: the supplement of paper PMC10307832

Compound: O=C(NC1CCNCC1)c1n[nH]cc1NC(=O)c1c(Cl)cccc1Cl [AT-7519] + CC(=O)Nc1cccc(-n2c(=O)n(C3CC3)c(=O)c3c(Nc4ccc(I)cc4F)n(C)c(=O)c(C)c32)c1 [Trametinib] (partner 0.02 µM)
Test: relative viability (nuclei count vs DMSO), 5 days (fraction); higher = more cells survive
Conditions: first compound 0.01 µM
In short: (§1)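 Medians of duplicate plates are given as relative viability. That measure is the nuclei count in treated wells divided by the count in vehicle wells. Counts were taken on 4× images of lung cancer cell lines in 1536-well plates, 5 days after pin-tool dosing the day after seeding with one drug alone or a fixed anchor-drug dose plus five library-drug doses (not always all listed) in √10 steps.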

Cell Line	relative viability
A-427	0.728
NCI-H441	0.429
NCI-H661	0.549
NCI-H1734	0.644
NCI-H460	0.193
NCI-H2347	0.263
SK-LU-1	0.498
NCI-H1395	1.16
201T	0.731
NCI-H1915	0.58
HCC-827	0.488
LXF-289	0.7
NCI-H23	0.338
NCI-H647	0.439
CAL-12T	0.403
NCI-H1651	0.765
EPLC-272H	0.309
NCI-H2228	0.441

Cell Line	relative viability
NCI-H1792	0.399
NCI-H1355	0.482
NCI-H3122	0.255
NCI-H1437	0.532
NCI-H1755	0.834
NCI-H2023	0.541
HCC-15	0.404
NCI-H1793	0.492
PC-14	0.681
EKVX	0.326
LC-2-ad	0.892
NCI-H1944	0.423
NCI-H1975	0.339
RERF-LC-KJ	0.865
NCI-H358	0.127
NCI-H650	1.02
PC-3 [JPC-3]	0.715

Same assay, conditions: first compound 0.03162 µM

Cell Line	relative viability
A-427	0.71
NCI-H441	0.474
NCI-H661	0.565
NCI-H1734	0.629
NCI-H460	0.155
NCI-H2347	0.256
SK-LU-1	0.46
NCI-H1395	1.04
201T	0.798
NCI-H1915	0.304
HCC-827	0.519
LXF-289	0.638
NCI-H23	0.355
NCI-H647	0.342
CAL-12T	0.289
NCI-H1651	0.781
EPLC-272H	0.312
NCI-H2228	0.426

Cell Line	relative viability
NCI-H1792	0.4
NCI-H1355	0.416
NCI-H3122	0.213
NCI-H1437	0.503
NCI-H1755	0.768
NCI-H2023	0.566
HCC-15	0.371
NCI-H1793	0.489
PC-14	0.771
EKVX	0.312
LC-2-ad	0.936
NCI-H1944	0.481
NCI-H1975	0.311
RERF-LC-KJ	0.864
NCI-H358	0.13
NCI-H650	0.924
PC-3 [JPC-3]	0.667

Same assay, conditions: first compound 0.3162 µM

Cell Line	relative viability
A-427	0.716
NCI-H441	0.32
NCI-H661	0.508
NCI-H1734	0.618
NCI-H460	0.129
NCI-H2347	0.274
SK-LU-1	0.416
NCI-H1395	0.799
201T	0.684
NCI-H1915	0.316
HCC-827	0.542
LXF-289	0.657
NCI-H23	0.33
NCI-H647	0.475
CAL-12T	0.217
NCI-H1651	0.871
EPLC-272H	0.275
NCI-H2228	0.421

Cell Line	relative viability
NCI-H1792	0.506
NCI-H1355	0.48
NCI-H3122	0.225
NCI-H1437	0.507
NCI-H1755	0.787
NCI-H2023	0.437
HCC-15	0.374
NCI-H1793	0.433
PC-14	0.545
EKVX	0.525
LC-2-ad	0.933
NCI-H1944	0.362
NCI-H1975	0.342
RERF-LC-KJ	0.758
NCI-H358	0.253
NCI-H650	1.04
PC-3 [JPC-3]	0.767

Same assay, conditions: first compound 1 µM

Cell Line	relative viability
A-427	0.338
NCI-H441	0.23
NCI-H661	0.203
NCI-H1734	0.31
NCI-H460	0.0266
NCI-H2347	0.254
SK-LU-1	0.309
NCI-H1395	0.499
201T	0.64
NCI-H1915	0.118
HCC-827	0.28
LXF-289	0.493
NCI-H23	0.164
NCI-H647	0.159
CAL-12T	0.131
NCI-H1651	0.828
EPLC-272H	0.22
NCI-H2228	0.247

Cell Line	relative viability
NCI-H1792	0.225
NCI-H1355	0.298
NCI-H3122	0.148
NCI-H1437	0.214
NCI-H1755	0.469
NCI-H2023	0.131
HCC-15	0.24
NCI-H1793	0.218
PC-14	0.0618
EKVX	0.3
LC-2-ad	0.506
NCI-H1944	0.302
NCI-H1975	0.165
RERF-LC-KJ	0.423
NCI-H358	0.0967
NCI-H650	0.348
PC-3 [JPC-3]	0.53

Compound: C1=CC2=C(C=C(C(=C2N=C1)O)N=NC3=CC4=C(C=C3)C=C(C=C4)S(=O)(=O)O)S(=O)(=O)O + Cc1nc(NC(=O)N2CCC[C@H]2C(N)=O)sc1-c1ccnc(C(C)(C)C(F)(F)F)c1 [Alpelisib] (partner 2 µM)
Test: as above
Conditions: first compound 0.08 µM
In short: as §1

Cell Line	relative viability
A-427	1.19
NCI-H441	0.823
NCI-H661	0.746
NCI-H1734	0.746
NCI-H460	0.545
NCI-H2347	1.03
SK-LU-1	1.06
NCI-H1395	1.08
201T	1.02
NCI-H1915	1.09
HCC-827	1.05
LXF-289	1.13
NCI-H23	0.753
NCI-H647	1.32
CAL-12T	1.85
NCI-H1651	1.09
EPLC-272H	0.996
NCI-H2228	0.687

Cell Line	relative viability
NCI-H1792	0.861
NCI-H1355	0.94
NCI-H3122	0.891
NCI-H1437	1.06
NCI-H1755	1.02
NCI-H2023	0.606
HCC-15	0.97
NCI-H1793	0.871
PC-14	1.03
EKVX	1.01
LC-2-ad	0.619
NCI-H1944	0.842
NCI-H1975	0.741
RERF-LC-KJ	0.907
NCI-H358	0.902
NCI-H650	1.25
PC-3 [JPC-3]	1.11

Same assay, conditions: first compound 0.253 µM

Cell Line	relative viability
A-427	1.07
NCI-H441	0.823
NCI-H661	0.467
NCI-H1734	0.692
NCI-H460	0.456
NCI-H2347	0.995
SK-LU-1	0.968
NCI-H1395	1.21
201T	0.991
NCI-H1915	1.05
HCC-827	0.989
LXF-289	1.01
NCI-H23	0.676
NCI-H647	1.19
CAL-12T	1.13
NCI-H1651	1.02
EPLC-272H	0.831
NCI-H2228	0.787

Cell Line	relative viability
NCI-H1792	0.639
NCI-H1355	0.838
NCI-H3122	0.795
NCI-H1437	0.995
NCI-H1755	0.874
NCI-H2023	0.671
HCC-15	0.811
NCI-H1793	0.706
PC-14	0.875
EKVX	0.849
LC-2-ad	0.783
NCI-H1944	0.718
NCI-H1975	0.653
RERF-LC-KJ	0.842
NCI-H358	0.927
NCI-H650	1.11
PC-3 [JPC-3]	1.02

Same assay, conditions: first compound 0.8 µM

Cell Line	relative viability
A-427	1.09
NCI-H661	0.54
NCI-H1734	0.636
NCI-H460	0.511
NCI-H2347	1.07
SK-LU-1	0.98
NCI-H1395	1.09
201T	0.995
NCI-H1915	1.08
HCC-827	0.807
LXF-289	1.02
NCI-H23	0.614
NCI-H647	1.11
CAL-12T	1.08
NCI-H1651	1.16
EPLC-272H	0.876
NCI-H2228	0.778

Cell Line	relative viability
NCI-H1792	0.66
NCI-H1355	0.767
NCI-H3122	0.719
NCI-H1437	0.935
NCI-H1755	0.933
NCI-H2023	0.636
HCC-15	0.807
PC-14	0.891
EKVX	0.793
LC-2-ad	0.828
NCI-H1944	0.832
NCI-H1975	0.603
RERF-LC-KJ	0.795
NCI-H358	0.776
NCI-H650	1.08
PC-3 [JPC-3]	0.971

Same assay, conditions: first compound 2.53 µM

Cell Line	relative viability
A-427	1.08
NCI-H441	0.736
NCI-H661	0.703
NCI-H1734	0.638
NCI-H460	0.5
NCI-H2347	1.07
SK-LU-1	1.1
NCI-H1395	1.06
201T	1.06
NCI-H1915	1.09
HCC-827	0.978
LXF-289	1.08
NCI-H23	0.705
NCI-H647	1.17
CAL-12T	1.29
NCI-H1651	1.08
EPLC-272H	0.963
NCI-H2228	0.655

Cell Line	relative viability
NCI-H1792	0.715
NCI-H1355	0.905
NCI-H3122	0.732
NCI-H1437	0.94
NCI-H1755	0.949
NCI-H2023	0.564
HCC-15	0.895
NCI-H1793	0.858
PC-14	0.994
EKVX	0.85
LC-2-ad	0.857
NCI-H1944	0.858
NCI-H1975	0.645
RERF-LC-KJ	0.818
NCI-H358	0.833
NCI-H650	1.08
PC-3 [JPC-3]	1.04

Same assay, conditions: first compound 8 µM

Cell Line	relative viability
A-427	1.17
NCI-H441	1.09
NCI-H661	0.967
NCI-H1734	0.689
NCI-H460	0.291
NCI-H2347	1.06
SK-LU-1	1.18
NCI-H1395	1.23
201T	1.03
NCI-H1915	1.06
HCC-827	1.05
LXF-289	0.976
NCI-H23	0.807
NCI-H647	0.984
CAL-12T	1.13
NCI-H1651	0.895
EPLC-272H	0.944
NCI-H2228	0.695
